The test system of data set [1] is Gastric lesions induced by 80% ethanol. Put plainly: Gastric lesions induced by ethanol (ulcer index by severity scores). Format: in vivo, Albino Wistar rats. The following applies: Rattus norvegicus, po, vs 80% EtOH group, read-out: Gastric lesions induced by 80% ethanol, % change; for inhibition in vivo at 25 mg/kg: compound 25 mg/kg; for inhibition in vivo at 50 mg/kg: compound 50 mg/kg; for inhibition in vivo at 12.5 mg/kg: compound 12.5 mg/kg. The method, then: Albino Wistar rats of either sex, approximately the same age, weighing 150 to 200 g and fed on a diet of standard chow were used in this study. They were randomly divided into experimental groups of six rats each. Compounds (N-1 to N-18) 12.5, 25, and 50 mg/kg were given orally in the anti-ulcer studies and intraperitoneally for gastric secretion evaluation. The rats were sacrificed, and the stomachs removed and opened along the greater curvature, After washing with saline, the gastric lesions were quantified by a person unaware of the treatments. The animal study protocol was approved by the Research and Ethics Committee of the Experimental Animal Care Society, College of Pharmacy, King Saud University, Riyadh, Saudi Arabia.
Gastric lesions induced by ethanol: Albino rats of either sex weighing between (150-200 g) are divided into groups. The animals were fasted for 24 hours with free access to water. Animals were given test drugs or standard drug. One hour later 1 mL/200 gm of 80% ethanol is administered orally to each animal. The animals were anaesthetized 1 hour latter with anesthetic ether and stomach was incised along the greater curvature and ulceration was scored. The number of ulcers and the length of each ulcer were measured. Ulcer index was calculated using severity scores. The mucosal damage was examined by means of a magnifying glass. For each stomach the mucosal damage was assessed according to the following scoring system: 0.5 redness; 1.0 spot ulcers; 1.5 hemorrhagic streaks; 2.0 ulcers<3, but≦5; 3.0 ulcers>5. Table 1 provides the effect of compounds on gastric lesions induced by 80% ethanol (mean±SE).

Structures are written as SMILES.

With `COc1cccc(C2NC(=O)NC=C2C(=O)c2ccc(N3CCCCC3)cc2)c1` (centres unmarked) [Compound N-12, 4-(3-Methoxyphenyl)-5-[4-(piperidin-1-yl)benzoyl]-3,4-dihydropyrimidin-2(1H)-one], the melting point (in general, the temperature of the solid-liquid transition) was in the range of 160 to 162 °C. Besides, in data set [1], the inhibition in vivo at 25 mg/kg turned out to be 7.1% and the inhibition in vivo at 50 mg/kg amounted to 10.7%.

Consider `COc1cc(C2NC(=O)NC=C2C(=O)c2ccc(N3CCCCC3)cc2)cc(OC)c1OC` (centres unmarked) [Compound N-16, 4-(3,4,5-Trimethoxyphenyl)-5-[4-(piperidin-1-yl)benzoyl]-3,4-dihydropyrimidin-2(1H)-one], for which the melting point is 135 to 137 °C. For the same compound, in data set [1], the inhibition in vivo at 12.5 mg/kg was found to be 7.1%, the inhibition in vivo at 25 mg/kg came out at 17.8% and the inhibition in vivo at 50 mg/kg worked out at 21.4%.

In the case of `O=C1NC=C(C(=O)c2ccc(N3CCCCC3)cc2)C(c2cccc([N+](=O)[O-])c2)N1` (centres unmarked) [Compound N-4, 4-(3-Nitrophenyl)-5-[4-(piperidin-1-yl)benzoyl]-3,4-dihydropyrimidin-2(1H)-one], the melting point is 185 to 187 °C. The inhibition in vivo at 50 mg/kg in data set [1] is 7.4%.

As for `O=C1NC=C(C(=O)c2ccc(N3CCCCC3)cc2)C(c2ccccc2[N+](=O)[O-])N1` (centres unmarked) [Compound N-2, 4-(2-Nitrophenyl)-5-[4-(piperidin-1-yl)benzoyl]-3,4-dihydropyrimidine-2(1H)-one], the melting point was 190 to 192 °C. In data set [1], the inhibition in vivo at 12.5 mg/kg worked out at 14.2%, the inhibition in vivo at 25 mg/kg is 21.4% and the inhibition in vivo at 50 mg/kg was found to be 28.5%.

`O=C1NC=C(C(=O)c2ccc(N3CCCCC3)cc2)C(c2ccc(O)cc2)N1` (centres unmarked) [Compound N-9, 4-(4-Hydroxyphenyl)-5-[4-(piperidin-1-yl)benzoyl]-3,4-dihydropyrimidin-2(1H)-one]: the melting point fell in the range of 210 to 212 °C. Further, the inhibition in vivo at 25 mg/kg in data set [1] was 2%.

For the compound `O=C1NC=C(C(=O)c2ccc(N3CCCCC3)cc2)C(c2cccc(O)c2)N1` (centres unmarked) [Compound N-10, 4-(3-Hydroxyphenyl)-5-[4-(piperidin-1-yl)benzoyl]-3,4-dihydropyrimidin-2(1H)-one], the melting point fell in the range of 190 to 192 °C. Besides, in data set [1], the inhibition in vivo at 12.5 mg/kg is 14%, the inhibition in vivo at 25 mg/kg was determined as 17.8% and the inhibition in vivo at 50 mg/kg is 21.4%.

Consider `COc1cc(OC)c(C2NC(=O)NC=C2C(=O)c2ccc(N3CCCCC3)cc2)c(OC)c1` (centres unmarked) [Compound N-17, 4-(2,4,6-Trimethoxyphenyl)-5-[4-(piperidin-1-yl)benzoyl]-3,4-dihydropyrimidin-2(1H)-one], for which the melting point was 140 to 142 °C. Further, in data set [1], the inhibition in vivo at 25 mg/kg came to 27.5% and the inhibition in vivo at 50 mg/kg amounted to 37.9%.

In turn, `COc1ccc(C2NC(=O)NC=C2C(=O)c2ccc(N3CCCCC3)cc2)cc1OC` (centres unmarked) [Compound N-7, 4-(3,4-Dimethoxyphenyl)-5-[4-(piperidin-1-yl)benzoyl]-3,4-dihydropyrimidin-2(1H)-one] displayed a melting point of 145 to 147 °C. In data set [1], the inhibition in vivo at 12.5 mg/kg was 10%, the inhibition in vivo at 25 mg/kg was found to be 26.6% and the inhibition in vivo at 50 mg/kg amounted to 33.3%.

On to `O=C1NC=C(C(=O)c2ccc(N3CCCCC3)cc2)C(c2ccccc2)N1` (centres unmarked) [Compound N-1, 4-Phenyl-5-[4-(piperidin-1-yl)benzoyl]-3,4-dihydropyrimidin-2(1H)-one], for which the melting point lay within 220 to 222 °C.

In turn, `COc1ccc(C2NC(=O)NC=C2C(=O)c2ccc(N3CCCCC3)cc2)c(OC)c1` (centres unmarked) [Compound N-18, 4-(2,4-Dimethoxyphenyl)-5-[4-(piperidin-1-yl)benzoyl]-3,4-dihydropyrimiden-2(1H)-one] came in with a melting point of 135 to 137 °C. Further, in data set [1], the inhibition in vivo at 12.5 mg/kg worked out at 6.4%, the inhibition in vivo at 25 mg/kg came out at 16.1% and the inhibition in vivo at 50 mg/kg worked out at 22.5%.

The compound `O=C1NC=C(C(=O)c2ccc(N3CCCCC3)cc2)C(c2ccc(Cl)cc2)N1` (centres unmarked) [Compound N-5, 4-(4-Chlorophenyl)-5-[4-(piperidin-1-yl)benzoyl]-3,4-dihydropyrimidin-2(1H)-one] displayed a melting point of 230 to 232 °C. Further, in data set [1], the inhibition in vivo at 25 mg/kg came to 7.1% and the inhibition in vivo at 50 mg/kg is 10.7%.

On to `CCOc1ccc(C2NC(=O)NC=C2C(=O)c2ccc(N3CCCCC3)cc2)cc1` (centres unmarked) [Compound N-13, 4-(4-Ethoxyphenyl)-5-[4-(piperidin-1-yl)benzoyl]-3,4-dihydropyrimidin-2(1H)-one], for which the melting point lay within 200 to 202 °C. Besides, in data set [1], the inhibition in vivo at 25 mg/kg was determined as 7.1% and the inhibition in vivo at 50 mg/kg is 14.2%.

Consider `O=C1NC=C(C(=O)c2ccc(N3CCCCC3)cc2)C(c2ccc(Cl)cc2Cl)N1` (centres unmarked) [Compound N-6, 4-(2,4-Dichlorophenyl)-5-[4-(piperidin-1-yl)benzoyl]-3,4-dihydropyrimidin-2(1H)-one], for which the melting point lay within 195 to 197 °C. Besides, in data set [1], the inhibition in vivo at 25 mg/kg is 7.1% and the inhibition in vivo at 50 mg/kg was determined as 10.7%.

Turning to `COc1cc(OC)c(C2NC(=O)NC=C2C(=O)c2ccc(N3CCCCC3)cc2)cc1OC` (centres unmarked) [Compound N-14, 4-(2,4,5-Trimethoxyphenyl)-5-[4-(piperidin-1-yl)benzoyl]-3,4-dihydropyrimiden-2(1H)-one], the melting point fell in the range of 155 to 157 °C. Also, in data set [1], the inhibition in vivo at 12.5 mg/kg came out at 10.3%, the inhibition in vivo at 25 mg/kg was found to be 27.5% and the inhibition in vivo at 50 mg/kg is 37.9%.

The values are drawn from patent US9856232B1, “Dihydropyrimidinone derivatives” (KING SAUD UNIVERSITY, priority 2017, dated 2018).
